Measurements from ChEMBL document CHEMBL5120747, “Mononucleoside phosphorodithiolates as mononucleotide prodrugs” (Eur J Med Chem, 2022).

Experiments:
[1] = Prodrug conversion in human CEM-SS cell extract assessed as parent ddA formation at 0.00005 M measured at 50 to 150 hrs by HPLC analysis; format: ADME, cell-based; conditions: 50 µM, time 50-150 hrs
[2] = system: Human immunodeficiency virus 1; assay: Anti-HIV activity against HIV-1 infected in human CEM-SS cells assessed as inhibition of viral replication; format: functional, organism-based; conditions: Human immunodeficiency virus 1, CEM-SS
[3] = system: Human immunodeficiency virus 1; assay: Anti-HIV activity against HIV-1 infected in human MT4 cells assessed as inhibition of viral replication; format: functional, organism-based; conditions: Human immunodeficiency virus 1, MT4
[4] = system: Human immunodeficiency virus 1; assay: Anti-HIV activity against HIV-1 infected in human PBMC assessed as inhibition of viral replication; format: functional, organism-based; conditions: Human immunodeficiency virus 1, PBMC
[5] = system: Human immunodeficiency virus 1; assay: Anti-HIV activity against HIV-1 infected in human MDM assessed as inhibition of viral replication; format: functional, organism-based
[6] = system: CEM-SS; assay: Cytotoxicity against human CEM-SS cells assessed as reduction in cell viability; format: functional
[7] = Cytotoxicity against human MT4 cells assessed as reduction in cell viability; format: toxicity, cell-based
[8] = Cytotoxicity against human PBMC assessed as reduction in cell viability; format: toxicity, cell-based
[9] = Cytotoxicity against human MDM assessed as reduction in cell viability; format: toxicity, cell-based
[10] = system: Human immunodeficiency virus 1; assay: Anti-HIV activity against HIV-1 infected in human CEM-TK(-) cells assessed as inhibition of viral replication; format: functional, organism-based; conditions: Human immunodeficiency virus 1, CEM-TK(-)
[11] = system: CEM-TK(-); assay: Cytotoxicity against human CEM-TK(-) cells assessed as reduction in cell viability; format: functional
[12] = Stability of compound in phosphate buffer at pH 7.4 by HPLC analysis; format: physicochemical
[13] = Stability of compound in RPMI 1640 culture medium at pH 7.45 by HPLC analysis; format: physicochemical; conditions: buffer
[14] = Prodrug conversion in human CEM-SS cell extract assessed as ddAMP formation at 0.00005 M measured at 100 to 500 mins by HPLC analysis; format: ADME, cell-based; conditions: 50 µM, time 100-500 min
[15] = Stability of compound in phosphate buffer at pH 7.4 assessed as compound half life by HPLC analysis; format: physicochemical
[16] = Stability of compound in RPMI 1640 culture medium at pH 7.45 assessed as compound half life by HPLC analysis; format: physicochemical
[17] = Stability of compound in inactivated fetal calf serum with RPMI 1640 culture medium assessed as compound half life by HPLC analysis; format: ADME, cell-free, Bos taurus; conditions: cattle
[18] = Stability of compound in human CEM-SS cell extract at pH 7.45 assessed as compound half life by HPLC analysis; format: ADME, cell-based
[19] = Prodrug conversion in human CEM-SS cell extract assessed as O-((2S,5R)-5-(6-amino-9H-purin-9-yl)tetrahydrofuran-2-yl)methyl S-2-(pivaloylthio)ethyl phos-phorothioate sodium salt metabolite formation at 0.00005 M measured at 5 to 15 hrs by HPLC analysis; format: ADME, cell-based; conditions: 50 µM, time 5-15 hrs
[20] = Prodrug conversion in human CEM-SS cell extract assessed as metabolite X formation at 0.00005 M measured at 100 to 500 mins by HPLC analysis; format: ADME, cell-based; conditions: 50 µM, time 100-500 min
[21] = Prodrug conversion in inactivated fetal calf serum with RPMI 1640 culture medium assessed as S-(O-pivaloyl-2-oxyethyl)O-2',3'-dideoxyadenosin-5'-yl phos-phorothiolate diester sodium salt metabolite formation at 0.00005 M measured at 50 to 150 hrs by HPLC analysis; format: ADME, cell-free, Bos taurus; conditions: cattle, 50 µM, time 50-150 hrs
[22] = Prodrug conversion in human CEM-SS cell extract assessed as S-(O-pivaloyl-2-oxyethyl)O-2',3'-dideoxyadenosin-5'-yl phos-phorothiolate diester sodium salt metabolite formation at 0.00005 M measured at 5 to 15 hrs by HPLC analysis; format: ADME, cell-based; conditions: 50 µM, time 5-15 hrs

In the case of `Nc1ncnc2c1ncn2[C@H]1CC[C@@H](COP(=O)(O)O)O1`, the Drug metabolism [1] is reported as “Metabolite_Detected”.

Work on `Nc1ncnc2c1ncn2[C@H]1CC[C@@H](CO)O1` yielded an EC50 [2] of 0.49 µM, an EC50 [3] of 7.8 µM and an EC50 [4] of 0.24 µM. It also gave an EC50 [5] of 0.12 µM, a CC50 [6] of over 100 µM and a CC50 [7] of over 100 µM. It also gave a CC50 [8] of over 100 µM and a CC50 [9] of 100 µM.

Compound `Cc1cn([C@H]2CC[C@@H](CO)O2)c(=O)[nH]c1=O` has an EC50 [2] of 0.7 µM, an EC50 [10] of over 100 µM and an EC50 [3] of 16 µM. For the same compound, the CC50 [6] was over 100 µM, the CC50 [11] was over 100 µM and the CC50 [7] was over 100 µM.

In the case of `Cc1cn([C@H]2CC[C@@H](COP(=O)(OCCSC(=O)C(C)(C)C)OCCSC(=O)C(C)(C)C)O2)c(=O)[nH]c1=O`, the EC50 [2] is reported as 0.22 µM, the EC50 [10] is reported as 0.05 µM and the EC50 [3] is reported as 2.5 µM. For the same compound, the CC50 [6] was over 10 µM, the CC50 [11] was over 10 µM and the CC50 [7] was over 10 µM.

`Cc1cn([C@H]2C=C[C@@H](COP(=O)(SCCOC(=O)C(C)(C)C)SCCOC(=O)C(C)(C)C)O2)c(=O)[nH]c1=O` gave an EC50 [2] of 0.027 µM, an EC50 [10] of 0.005 µM and an EC50 [3] of 0.099 µM. It also gave a CC50 [6] of over 10 µM, a CC50 [11] of 8 µM and a CC50 [7] of over 10 µM.

`Cc1cn([C@H]2CC[C@@H](COP(=O)(SCCOC(=O)C(C)(C)C)SCCOC(=O)C(C)(C)C)O2)c(=O)[nH]c1=O` showed an EC50 [2] of 0.08 µM, an EC50 [10] of 0.05 µM and an EC50 [3] of 0.9 µM. The CC50 [6] was over 10 µM, the CC50 [11] was over 10 µM and the CC50 [7] was over 10 µM.

For `CC(C)(C)C(=O)OCCSP(=O)([O-])OC[C@@H]1CC[C@H](n2cnc3c(N)ncnc32)O1.[Na+]`, the Stability [12] was “Stable”, the Stability [13] was “Stable” and the Drug metabolism [14] was “Metabolite_Detected”.

With `CC(C)(C)C(=O)SCCOP(=O)(OCCSC(=O)C(C)(C)C)OC[C@@H]1C=C[C@H](n2cnc3c(N)ncnc32)O1` the EC50 [2] was 0.018 µM, the EC50 [3] was 0.32 µM and the EC50 [4] was 0.047 µM. For the same compound, the EC50 [5] was 0.00016 µM, the CC50 [6] was 5.9 µM and the CC50 [7] was 9 µM. For the same compound, the CC50 [8] was 1.7 µM, the CC50 [9] was 3.6 µM and the half-life [15] was 432 h. The half-life [16] was 302 h, the half-life [17] was 166 h and the half-life [18] was 1 h. The Drug metabolism [19] was “Metabolite_Detected”.

In the case of `CC(C)(C)C(=O)SCCOP(=O)([O-])OC[C@@H]1CC[C@H](n2cnc3c(N)ncnc32)O1.[Na+]`, the Stability [12] is reported as “Stable”, the Stability [13] is reported as “Stable” and the Drug metabolism [20] is reported as “Metabolite_Detected”. The Drug metabolism [14] was “Metabolite_Detected”.

Work on `Cc1cn([C@H]2C=C[C@@H](COP(=O)(OCCSC(=O)C(C)(C)C)OCCSC(=O)C(C)(C)C)O2)c(=O)[nH]c1=O` yielded an EC50 [2] of 0.03 µM, an EC50 [10] of 0.021 µM and an EC50 [3] of 0.26 µM. For the same compound, the CC50 [6] was over 10 µM, the CC50 [11] was 4.6 µM and the CC50 [7] was over 10 µM.

With `CC(C)(C)C(=O)OCCSP(=O)(OC[C@@H]1CC[C@H](n2cnc3c(N)ncnc32)O1)SCCOC(=O)C(C)(C)C` the EC50 [2] was 0.025 µM, the EC50 [3] was 0.27 µM and the EC50 [4] was 0.02 µM. It also gave an EC50 [5] of 0.00023 µM, a CC50 [6] of over 10 µM and a CC50 [7] of over 1 µM. It also gave a CC50 [8] of over 10 µM, a CC50 [9] of 8.6 µM and a half-life [15] of 69.6 h. The half-life [16] was 52.8 h, the half-life [17] was 38.4 h and the half-life [18] was 5.3 h. For the same compound, the Drug metabolism [21] was “Metabolite_Detected” and the Drug metabolism [22] was “Metabolite_Detected”.

`Cc1cn([C@H]2C=C[C@@H](CO)O2)c(=O)[nH]c1=O` [STAVUDINE] showed an EC50 [2] of 0.059 µM, an EC50 [10] of over 10 µM and an EC50 [3] of 0.28 µM. For the same compound, the CC50 [6] was over 100 µM, the CC50 [11] was over 100 µM and the CC50 [7] was over 100 µM.
